{"source": "patent US8507464B2", "about": "“Phosphoramidate alkylator prodrugs” (Threshold Pharmaceuticals, Inc., priority 2005, dated 2013)", "key": {"[1]": {"assay": "Solubility in saline at room temperature", "format": "physicochemical", "settings": "saline or isotonic"}, "H460 cells": {"system": "H460 cells", "assay": "Cell cycle distribution (flow cytometry)", "format": "cell-based, human"}}}
{"smiles": "Cn1c(COP(=O)(NCCBr)NCCBr)cnc1[N+](=O)[O-]", "note": "[Compound 25]", "values": [{"measurement": "solubility", "setting": "[1]", "result": 15, "unit": "mg/mL"}, {"measurement": "Cell cycle G0/G1", "setting": "H460 cells; 0.005 μM, Air", "result": 38}, {"measurement": "Cell cycle G2/M", "setting": "H460 cells; 0.005 μM, Air", "result": 42}, {"measurement": "Cell cycle S", "setting": "H460 cells; 0.005 μM, Air", "result": 18}, {"measurement": "Cell cycle G0/G1", "setting": "H460 cells; 0.005 μM, Nitrogen", "result": 50}, {"measurement": "Cell cycle G2/M", "setting": "H460 cells; 0.005 μM, Nitrogen", "result": 38}, {"measurement": "Cell cycle S", "setting": "H460 cells; 0.005 μM, Nitrogen", "result": 12}, {"measurement": "Cell cycle G0/G1", "setting": "H460 cells; 0.05 μM, Air", "result": 58}, {"measurement": "Cell cycle G2/M", "setting": "H460 cells; 0.05 μM, Air", "result": 28}, {"measurement": "Cell cycle S", "setting": "H460 cells; 0.05 μM, Air", "result": 11}, {"measurement": "Cell cycle G0/G1", "setting": "H460 cells; 0.05 μM, Nitrogen", "result": 30}, {"measurement": "Cell cycle G2/M", "setting": "H460 cells; 0.05 μM, Nitrogen", "result": 59}, {"measurement": "Cell cycle S", "setting": "H460 cells; 0.05 μM, Nitrogen", "result": 7}, {"measurement": "Cell cycle G0/G1", "setting": "H460 cells; 0.5 μM, Air", "result": 58}, {"measurement": "Cell cycle G2/M", "setting": "H460 cells; 0.5 μM, Air", "result": 28}, {"measurement": "Cell cycle S", "setting": "H460 cells; 0.5 μM, Air", "result": 11}, {"measurement": "Cell cycle G0/G1", "setting": "H460 cells; 0.5 μM, Nitrogen", "result": 23}, {"measurement": "Cell cycle G2/M", "setting": "H460 cells; 0.5 μM, Nitrogen", "result": 40}, {"measurement": "Cell cycle S", "setting": "H460 cells; 0.5 μM, Nitrogen", "result": 31}, {"measurement": "Cell cycle G0/G1", "setting": "H460 cells; 5 μM, Air", "result": 42}, {"measurement": "Cell cycle G2/M", "setting": "H460 cells; 5 μM, Air", "result": 59}, {"measurement": "Cell cycle S", "setting": "H460 cells; 5 μM, Air", "result": 6}, {"measurement": "Cell cycle G0/G1", "setting": "H460 cells; 5 μM, Nitrogen", "result": 47}, {"measurement": "Cell cycle G2/M", "setting": "H460 cells; 5 μM, Nitrogen", "result": 17}, {"measurement": "Cell cycle S", "setting": "H460 cells; 5 μM, Nitrogen", "result": 15}, {"measurement": "Cell cycle G0/G1", "setting": "H460 cells; 50 μM, Air", "result": 14}, {"measurement": "Cell cycle G2/M", "setting": "H460 cells; 50 μM, Air", "result": 65}, {"measurement": "Cell cycle S", "setting": "H460 cells; 50 μM, Air", "result": 19}, {"measurement": "Cell cycle G0/G1", "setting": "H460 cells; 50 μM, Nitrogen", "result": 33}, {"measurement": "Cell cycle G2/M", "setting": "H460 cells; 50 μM, Nitrogen", "result": 11}, {"measurement": "Cell cycle S", "setting": "H460 cells; 50 μM, Nitrogen", "result": 14}]}
